pEC50, pIC50: −log10 of the molar value. Where a name gives a salt, the structure may show the parent alone.
Assays:
IRAK4 [1] = target: T1, IRAK4 (Homo sapiens, UniProt Q9NWZ3); assay: IRAK4 PhosphoSens Biochemical Assay (BIOCHEM); conditions: IRAK4 1 nM; ATP and Sox conjugated peptide substrate AQT0326; pH 7.5; room temperature; 240 minutes
T1 sequence (Q9NWZ3 1-460): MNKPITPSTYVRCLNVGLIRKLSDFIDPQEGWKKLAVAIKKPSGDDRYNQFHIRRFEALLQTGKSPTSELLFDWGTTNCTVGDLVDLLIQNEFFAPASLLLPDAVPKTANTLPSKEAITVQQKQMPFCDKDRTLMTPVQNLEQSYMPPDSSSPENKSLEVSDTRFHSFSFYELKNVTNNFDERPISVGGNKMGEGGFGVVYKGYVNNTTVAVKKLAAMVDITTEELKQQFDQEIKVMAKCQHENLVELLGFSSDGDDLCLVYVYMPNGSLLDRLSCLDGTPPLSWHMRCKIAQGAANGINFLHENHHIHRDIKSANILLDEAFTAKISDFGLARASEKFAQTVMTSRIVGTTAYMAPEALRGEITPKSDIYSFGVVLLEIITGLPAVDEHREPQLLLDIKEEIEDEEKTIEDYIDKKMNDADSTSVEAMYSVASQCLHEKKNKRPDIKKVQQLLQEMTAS
Description: The PhosphoSens® biochemical assay was performed as described by the vendor (AssayQuant Technologies Inc. Marlborough, MA). A 1.25× stock solution of IRAK4 (PV4002, ThermoFisher Scientific, Waltham, MA) and a 5× stock solution of ATP and Sox conjugated peptide substrate, AQT0326 (CSKS-AQT0326B, AssayQuant Technologies), were prepared in 1× kinase reaction buffer consisting of 50 mM HEPES, pH 7.5, 0.01% Brij-35, 0.5 mM EGTA, 20 mM MgCl2 and 1 mM DTT. 10 μL of the ATP and substrate solution mix, for a final concentration of 200 µM ATP and […] peptide substrate, was added to a Corning 3574 384-well, white, non-binding surface microtiter plate containing 0.5 μL of serially diluted test compounds prepared in DMSO. The reactions were started with the addition of 40 μL of the enzyme solution, for a final IRAK4 concentration of 1 nM, and monitored every 71 seconds for 240 minutes at λEX 360/λEM 485 in a BioTek Synergy H4 plate reader (Agilent Technologies, Santa Clara, CA) at room temperature. The initial linear portions of the progress curves were fit according to a linear equation to yield the slopes and converted to % inhibition based on a value of 100% activity for the no inhibitor treated control. IC50 values of each compound were obtained by fitting the % inhibition-compound concentration curves using Dotmatics software (Dotmatics, Bishops Stortford, Hertfordshire, England),

IRAK4 [2] = target: T1, IRAK4; assay: ALE THP1 HTRF (IRAK4 HTRF in THP1 cell lysate, Cisbio HTRF kit); type: cell-based; design: THP1 Homogeneous Time Resolved Fluorescence (ALE THP1 HTRF) Procedure; endogenous in cells; host or cells: THP1; conditions: anti-IRAK4 d2 / anti-IRAK4 k antibodies
Description: Cell culture media was prepared in a tissue culture hood in a sterile environment by adding 10% FBS and 1% Penicillin Streptomycin to 500 mL no phenol red RPMI 1640 media. The media was filtered through a Nalgene Bottle Top Filter and stored at 4° C.
For Homogenous Time Resolved Fluorescence (HTRF) assays, a Cisbio HTRF kit was used, which included: Lysis Buffer #1 4×, Blocking Reagent #3 100×, 20× Antibody 1 (Anti-IRAK4 d2), 20× Antibody 2 (Anti-IRAK4 k), and Detection Buffer.
4× Lysis Buffer was stored at 4° C. For use as 1× Lysis buffer, the 4× solution was diluted with de-ionized water (distilled water, Gibco Cat. #15230279) and 100× Blocking Reagent in a 1:3:0.04 volume ratio.
20× Antibody Solution aliquots were stored at −80° C. and the Detection Buffer was stored at 4° C. For use as a 1× Antibody Solution, the 20× Antibody Solution aliquot was diluted with Detection Buffer in a 1:19 volume ratio.
Cells were lysed at room temperature for 45 min with shaking. A BCA protein assay was performed and normalization was conducted to the desired total protein concentration with 1× lysis buffer. Next, 1× Antibody Solutions were prepared by adding 380 μL Detection Buffer to 20 μL 20× Antibody Solution aliquots and mixing well. 1× Antibody Solutions were combined 1:1 and briefly vortexed. For control wells, 20 μL 1× anti IRAK4-k Antibody Solution was saved. The 384-well plate (ProxiPlate-384 Plus, Perkin Elmer Cat. #6008289) was loaded by adding 4 μL of the mixed Antibody Solution to empty wells using a single channel repeater. Using a multi-channel repeater, 16 μL lysate was added per well, and any bubbles that were formed were popped with 20 μL pipette tips and Kimwipe edges. In column 10, triplicates of each control were prepared. In wells A10, B10, and C10, buffer control was prepared by adding 16 μL Lysis Buffer and 4 μL Detection Buffer. In wells D10, E10, and F10, cryptate control was prepared by adding 16 μL Lysis Buffer, 2 μL Detection Buffer, and 2 μL 1× anti-IRAK4-k Antibody Solution. In wells G10, H10, and 110, a negative control was prepared by adding 16 μL Lysis Buffer and 4 μL mixed Antibody Solution. The plate was sealed with a clear seal and covered with an aluminum lid. The plate was spun down at 800 g for 5 min and incubated in the dark at room temperature overnight. The next day, the plate was spun down at 800 g for 5 min. The samples were analyzed by a plate reader (Envision, PerkinElmer) using the Desnor 384 HTRF program.

SMILES	pIC50 (IRAK4 [1])	pEC50 (IRAK4 [2])	ALE THP1 HTRF YMIN (IRAK4 [2]) [%]
N#Cc1nn([C@H]2CC[C@H](C(=O)N3CCN(c4ccc5c(c4)C(=O)N(C4CCC(=O)NC4=O)C5=O)CC3)CC2)cc1NC(=O)c1cnn2ccc(N3CCNCC3)nc12 (stereo partly drawn) [Compound P-1, N-(3-cyano-1-((1r,4r)-4-(4-(2-(2,6-dioxopiperidin-3-yl)-1,3-dioxoisoindolin-5-yl)piperazine-1-carbonyl)cyclohexyl)-1H-pyrazol-4-yl)-5-(piperazin-1-yl)pyrazolo[1,5-a]pyrimidine-3-carboxamide hydrochloride]	8.07	7.17	30
N#Cc1nn(C2CCC(C(=O)N3CCN(c4ccc5c(c4)C(=O)N(C4CCC(=O)NC4=O)C5)CC3)CC2)cc1NC(=O)c1cnn2ccc(N3CCNCC3)nc12 (stereo not drawn) [Compound P-2]	7.82	< 5.00	63
N#Cc1nn(C2CCC(C(=O)NC3CCN(c4ccc5c(c4)C(=O)N(C4CCC(=O)NC4=O)C5=O)CC3)CC2)cc1NC(=O)c1cnn2ccc(N3CCNCC3)nc12 (stereo not drawn) [Compound P-3]	8.37	< 5.00	54
N#Cc1nn([C@H]2CC[C@H](C(=O)N3CCN(c4ccc5c(c4)CN(C4CCC(=O)NC4=O)C5=O)CC3)CC2)cc1NC(=O)c1cnn2ccc(N3CCNCC3)nc12 (stereo partly drawn) [Compound P-4]	8.49	< 5.00	94
N#Cc1nn([C@H]2CC[C@H](CN3CCN(c4ccc5c(c4)C(=O)N(C4CCC(=O)NC4=O)C5=O)CC3)CC2)cc1NC(=O)c1cnn2ccc(N3CCNCC3)nc12 (stereo partly drawn) [Compound P-6, N-[3-Cyano-1-[4-[[4-[2-(2,6-dioxo-3-piperidyl)-1,3-dioxo-isoindolin-5-yl]piperazin-1-yl]methyl]cyclohexyl]pyrazol-4-yl]-5-piperazin-1-yl-pyrazolo[1,5-a]pyrimidine-3-carboxamide dihydrochloride]	8.09	5.55	26

The next molecules have a higher pIC50 (IRAK4 [1]) than those just listed; values first:

pIC50 (IRAK4 [1])	pEC50 (IRAK4 [2])	ALE THP1 HTRF YMIN (IRAK4 [2]) [%]	SMILES
9.30	< 5.00	60	N#Cc1nn([C@H]2CC[C@H](C(=O)N3CCN(c4ccc5c(c4)C(=O)N(C4CCC(=O)NC4=O)C5=O)CC3)CC2)cc1NC(=O)c1cnn2ccc(N3CCC[C@@H](N)C3)nc12 (stereo partly drawn) [Compound P-5]
> 9.30	< 5.00	74	N#Cc1nn(C2CCC(C(=O)N3CCN(c4ccc5c(c4)C(=O)N(C4CCC(=O)NC4=O)C5=O)CC3)CC2)cc1NC(=O)c1cnn2ccc(N[C@@H]3CCCC[C@@H]3N)nc12 (stereo partly drawn) [Compound P-7]
> 9.30	8.05	33	N#Cc1nn(C2CCC(C(=O)N3CCN(c4ccc5c(c4)C(=O)N(C4CCC(=O)NC4=O)C5=O)CC3)CC2)cc1NC(=O)c1cnn2ccc(N3C[C@H](N)C[C@@H](F)C3)nc12 (stereo partly drawn) [Compound P-8]
8.85	< 5.00	78	N#Cc1nn([C@H]2CC[C@H](CN3CCC(c4ccc5c(c4)C(=O)N(C4CCC(=O)NC4=O)C5)CC3)CC2)cc1NC(=O)c1cnn2ccc(N3CCNCC3)nc12 (stereo partly drawn) [Compound P-9]
8.92	< 5.00	73	N#Cc1nn(C2CCC(C(=O)N3CCC(c4ccc5c(c4)C(=O)N(C4CCC(=O)NC4=O)C5)CC3)CC2)cc1NC(=O)c1cnn2ccc(N3CCNCC3)nc12 (stereo not drawn) [Compound P-10]
9.30	< 5.00	74	N#Cc1nn([C@H]2CC[C@H](C(=O)N3CCN(c4ccc5c(c4)C(=O)N(C4CCC(=O)NC4=O)C5=O)CC3)CC2)cc1NC(=O)c1cnn2ccc(N3CCC[C@@H](O)C3)nc12 (stereo partly drawn) [Compound P-11]
9.30	5.37	66	N#Cc1nn(C2CCC(C(=O)N3CCC(c4ccc5c(c4)C(=O)N(C4CCC(=O)NC4=O)C5=O)CC3)CC2)cc1NC(=O)c1cnn2ccc(N3CCNCC3)nc12 (stereo not drawn) [Compound P-12]
